Test [1] deals with M498 cells. Put plainly: Detached/adhered viability assay, ethidium homodimer staining, M498. Format: cell-based, human. The following applies: for cell death: 24 hours of WGA. As to the method: (§1) Bleb formation was inhibited using wheat germ agglutinin (WGA), a lectin that reduces plasma membrane deformability by crosslinking components of the glycocalyx. […] To investigate putative bleb function as a driver of anchorage-independent cell survival assays were designed that consistently minimized both cell-substrate and cell-cell attachment over a period of 24 hours. This was accomplished by seeding cells at very low density (approx. 250 or 100 cells/ml) in non-adherent culture dishes under constant gentle agitation. For controls, cells were grown at identical concentrations in adherent variants of the same culture dishes. Together, this generated pairs of ‘detached’ and ‘adhered’ cell populations in paired same-day experiments.
Detached/Adhered Cell Culture. […] Drug treatments, solvent-only controls, or CellEvent caspase activity sensor were added to suspensions if appropriate to the experiment, and then immediately transferred to both an uncoated (for detached cells) and ibiTreated (for adhered cells) 8-well ibidi u-slide (ibidi cat #80821 and 80826) at 200 μl/well. Both slides were stored at 37° C. and 5% CO2 for either 24 hours (hrs) for viability assays, 3 hrs for ERK activity assays or 4 hours for caspase activation assays. Uncoated slides (detached) were nutated at 20 rpm during this time. […]
Viability, ERK Activity, and Caspase ActivityCell Counting Assays. Viability, ERK activity, and caspase activity assays were analyzed using live-cell fluorescent and phase-contrast microscopy, performed on a Nikon Ti microscope equipped with an environmental chamber held at 37° C. and 5% CO2 at 20× magnification. […] Live and dead cells (as identified by significant cellular ethidium signal) were counted using the Cell Counter ImageJ plugin. For ERK activity assays, live cells carrying ERK-nKTR-GFP and H2B-mCherry were imaged after 3 hours of experimental conditions and high/low ERK activity cells were counted with Cell Counter ImageJ plugin. […] Caspase positive and negative cells (as identified by significant cellular CellEvent signal) were counted using the Cell Counter ImageJ plugin.

Test [2] concerns A375 cells. Put plainly: Detached/adhered viability assay, ethidium homodimer staining, A375. Format: cell-based, human. The settings on record: for anoikis resistance (cell death adhered vs detached): 24 hours. As to the method:
as §1
Cell Culture and Reagents. MV3 cells were obtained from MD Anderson Cancer Center. A375 cells (ATCCR CRL1619) were acquired from ATCC. M498 cells were acquired from UT Southwestern.
(§2) Detached/Adhered Cell Culture. […] Drug treatments, solvent-only controls, or CellEvent caspase activity sensor were added to suspensions if appropriate to the experiment, and then immediately transferred to both an uncoated (for detached cells) and ibiTreated (for adhered cells) 8-well ibidi u-slide (ibidi cat #80821 and 80826) at 200 μl/well. Both slides were stored at 37° C. and 5% CO2 for either 24 hours (hrs) for viability assays, 3 hrs for ERK activity assays or 4 hours for caspase activation assays. Uncoated slides (detached) were nutated at 20 rpm during this time. […] For experiments using MAPKi A375 cells, Dabrafenib and Trametinib treatment was continued over the course of the experiment.
Cells Grown in VitroGel Coffins. VitroGel coffins were prepared by embedding MV3 or A375 cells in VitroGel 3D or RGD at 1:1 dilution according to manufacturer's instructions (TheWell Biosciences, sku #TWG001). […] A 1:1 solution of VitroGel and VitroGel Dilution Solution was made and added to cell suspension at a ratio of 4:1 (VitroGel: cells) using gentle pipetting until well-mixed (with care taken not to form bubbles). Cell/VitroGel solution was transferred to an 8-well uncoated ibidi μ-slide (ibidi cat #80821) at 100 μl/well, spread over the bottom of wells with a pipette tip, and allowed to polymerize at room temperature for 15 minutes. The remainder of the well was then filled with 10% FBS DMEM and slide was stored at 37° C. and 5% CO2 for either 24 hrs for viability assays, 3 hrs for ERK activity assays, or 1 hour for visualization of septins/PI3K activity.
Viability, ERK Activity, and Caspase ActivityCell Counting Assays. Viability, ERK activity, and caspase activity assays were analyzed using live-cell fluorescent and phase-contrast microscopy, performed on a Nikon Ti microscope equipped with an environmental chamber held at 37° C. and 5% CO2 at 20× magnification. For viability assays, cells were stained with ethidium homodimer-1 (Invitrogen cat #E1169) at 4 µM and Hoechst (ThermoFisher cat #H3570) at 10 μg/ml for 15 minutes before imaging. Live and dead cells (as identified by significant cellular ethidium signal) were counted using the Cell Counter ImageJ plugin. For ERK activity assays, live cells carrying ERK-nKTR-GFP and H2B-mCherry were imaged after 3 hours of experimental conditions and high/low ERK activity cells were counted with Cell Counter ImageJ plugin. Cells in which nuclear GFP signals were by eye higher than cytoplasmic signal (“brighter” nucleus visible within “darker” cytoplasm) were labelled ERK low, while cytoplasmic signals equal to or higher than nuclear signal (nucleus indistinguishable from cytoplasm or “darker” nucleus within “brighter” cytoplasm) were labelled ERK high. To control for unconscious bias in making this determination, the identity of all ERK experimental groups were blinded from the analyst. […]

For test [3], the system named is MEF cells. Put plainly: Caspase activity assay (CellEvent Caspase-3/7) in MEF cells expressing DYN2 (K44A). Type of test: cell-based, mouse. The settings on record: 10 μg/mL WGA or 50 μM FCF; for anoikis resistance acquired by DYN2 (K44A) expression: MEF DYN2 (K44A); for caspase activation: detached MEF DYN2 (K44A), 4 hours.
Source text: Inhibitors. Wheat Germ Agglutinin (WGA) was purchased from Sigma (product #L9640). Forchlorfenuron (FCF) was purchased from Sigma (product #C2791). VitroGel and VitroGel-RGD were purchased from TheWell Bioscience (sku #s TWG001 and TWG002). H1152 was purchased from Tocris (catalogue #2414). NSC6683394 was purchased from Sigma (product #341216). Dabrafenib (GSK2118436), and Trametinib (GSK1120212) were purchased from Selleckchem. Transient expression of dominant negative Dyn2 (K44A) 66,67 was achieved through adenovirus transduction68 as previously described69 with cells analyzed 16-18 hours after transduction.
as §2
Viability, ERK Activity, and Caspase ActivityCell Counting Assays. Viability, ERK activity, and caspase activity assays were analyzed using live-cell fluorescent and phase-contrast microscopy, performed on a Nikon Ti microscope equipped with an environmental chamber held at 37° C. and 5% CO2 at 20× magnification. For viability assays, cells were stained with ethidium homodimer-1 (Invitrogen cat #E1169) at 4 µM and Hoechst (ThermoFisher cat #H3570) at 10 μg/ml for 15 minutes before imaging. Live and dead cells (as identified by significant cellular ethidium signal) were counted using the Cell Counter ImageJ plugin. For ERK activity assays, live cells carrying ERK-nKTR-GFP and H2B-mCherry were imaged after 3 hours of experimental conditions and high/low ERK activity cells were counted with Cell Counter ImageJ plugin. Cells in which nuclear GFP signals were by eye higher than cytoplasmic signal (“brighter” nucleus visible within “darker” cytoplasm) were labelled ERK low, while cytoplasmic signals equal to or higher than nuclear signal (nucleus indistinguishable from cytoplasm or “darker” nucleus within “brighter” cytoplasm) were labelled ERK high. To control for unconscious bias in making this determination, the identity of all ERK experimental groups were blinded from the analyst. […] Caspase positive and negative cells (as identified by significant cellular CellEvent signal) were counted using the Cell Counter ImageJ plugin.

For the compound `O=C(Nc1ccccc1)Nc1ccnc(Cl)c1` [FCF, forchlorfenuron], the “anoikis resistance (cell death adhered vs detached)” value in test [1] (M498, 50 μM FCF, 24 hours) is “greatly disrupted anoikis resistance”; in test [2] (non-stressed A375, 50 μM FCF), “no appreciable effect”; in test [2] (pre-stressed A375, 50 μM FCF) it was “greatly disrupted anoikis resistance”. The “anoikis resistance acquired by DYN2 (K44A) expression” value in test [3] is on record as “reversed”. Besides, the caspase activation result in test [3] is on record as “returned to levels seen in matched non-blebbing control cells”.
As to wheat germ agglutinin [WGA], the cell death entry in test [1] (adhered M498 cells) was “die upon WGA treatment”; in test [1] (detached M498 cells), “significantly more death”; in test [2] (detached A375 pre-incubated 48 hours with 10 nM Dabrafenib and 1 nM Trametinib, WGA), “increased cell death”; in test [2] (unstressed A375 cells, adhered or detached, 24 hours of WGA) it was “unaffected”. Also, the viability entry in test [2] (adhered A375 pre-incubated 48 hours with 10 nM Dabrafenib and 1 nM Trametinib, WGA) is listed as “minimal change in viability”. Further, in test [2] (pre-stressed A375 cells (overconfluent for 48 hours), WGA), the “anoikis resistance upon bleb inhibition” value is recorded as “strongly dependent upon blebbing”. Further, the “anoikis resistance acquired by DYN2 (K44A) expression” value in test [3] is “reversed”. Besides, the caspase activation result in test [3] is “returned to levels seen in matched non-blebbing control cells”.

The values above are taken from US20250268980A1, “AN ANTICANCER THERAPY TARGETING RAS AND OTHER ONCOGENIC SIGNALS BY INHIBITION OF DYNAMIC BLEBBING AND/OR SEPTINS” (THE BOARD OF REGENTS OF THE UNIVERSITY OF TEXAS SYSTEM, priority 2022, published 2025).
